From patent US10676767B2, “Methods and compositions for making ephedrine and related alkaloid compounds” (priority 2015, dated 2020)

Experiments:
[1] = test system: plant-derived NMT; assay: NMT activity assay with Ephedra sinica plant tissue extract; format: biochemical; settings: standard assay conditions, 4 hour assay, Ephedra sinica-derived protein
Description: For purification, bacterial pellets obtained following induction/incubation were resuspened in 10 mL of resuspension buffer (50 mM Tris pH 8.5, 10% v/v glycerol, 1% w/v polyvinylpyrrolidone, 5 mM dithiothreitol) and lysed at 4° C. using a French pressure cell (1,000 psi). After centrifugation (10,000 g) to remove insoluble debris, the supernatant was incubated on ice with buffer-equilibrated Talon resin (Clontech) on an orbital shaker (60 rpm) for 60 minutes. The protein-charged resin was washed twice with 10 mL of cold resuspension buffer containing 2.5 mM imidazole, and proteins were eluted stepwise with increasing concentrations (10 to 200 mM) of imidazole in resuspension buffer. Total proteins from a 40 mM imidazole elution were desalted using a PD-10 column (EMD Millipore) and resuspension buffer free of imidazole. Recombinant proteins were analyzed by SDS-PAGE to assess yield and purity, and immunoblot analyses were conducted using α-His primary antibodies and goat-anti-mouse, horseradish peroxidase-conjugated secondary antibodies. Total protein concentration was determined using BCA Protein Assay kit (Thermo Scientific). Calculated protein concentrations were adjusted on gel densitometry. Standard enzyme assays included approximately 100 μg/mL purified NMT protein, which was determined to be in the linear range of catalyst performance. […]

[2] = test system: N-methyltransferase (NMT); assay: Standard enzyme assay with purified E. coli-produced NMT, N-methylated product measured by LC-MS; format: biochemical, Ephedra sinica; settings: for acceptance as substrate for N-methylation by NMT (FIG. 3): 1 mM alkaloid substrate, 1 mM SAM, 100 μg/mL purified NMT, 4 h at 37° C., pH 8.5
Description: Open reading frames (ORFs) of N-methyltransferase (NMT) enzyme sequences (i.e. SEQ. ID NO: 1 and SEQ. ID NO: 2) were subcloned into Escherichia coli expression vector pET47b (Merck Millipore) in-frame with vector-encoded His-tag for downstream purification purposes. Constructs were transformed into E. coli strains ArcticExpress (Agilent Technologies) or Rosetta (Novagen). Recombinant His-tagged protein production was performed according to standard procedures (Farrow et al. 2013. J. Biol. Chem. 288: 28977) and manufacturer's instructions. Briefly, cultures of E. coli harboring pET47b were grown on an orbital shaker (200 rpm) to log phase in 1 L of LB medium containing gentamicin, streptomycin and kanamycin (Arctic Express) or chloramphenicol and kanamycin (Rosetta). Recombinant His-tagged protein production was initiated by the addition of 1 mM isopropyl β-D-1-thiogalactopyranoside (IPTG). To produce NMT, cultures were grown for 24 h at 15° C.
For purification, bacterial pellets obtained following induction/incubation were resuspened in 10 mL of resuspension buffer (50 mM Tris pH 8.5, 10% v/v glycerol, 1% w/v polyvinylpyrrolidone, 5 mM dithiothreitol) and lysed at 4° C. using a French pressure cell (1,000 psi). After centrifugation (10,000 g) to remove insoluble debris, the supernatant was incubated on ice with buffer-equilibrated Talon resin (Clontech) on an orbital shaker (60 rpm) for 60 minutes. The protein-charged resin was washed twice with 10 mL of cold resuspension buffer containing 2.5 mM imidazole, and proteins were eluted stepwise with increasing concentrations (10 to 200 mM) of imidazole in resuspension buffer. Total proteins from a 40 mM imidazole elution were desalted using a PD-10 column (EMD Millipore) and resuspension buffer free of imidazole. Recombinant proteins were analyzed by SDS-PAGE to assess yield and purity, and immunoblot analyses were conducted using α-His primary antibodies and goat-anti-mouse, horseradish peroxidase-conjugated secondary antibodies. Total protein concentration was determined using BCA Protein Assay kit (Thermo Scientific). Calculated protein concentrations were adjusted on gel densitometry. […] Specifically, standard enzyme reactions consisted of 50 mM Tris pH 8.5, 10 v/v glycerol, 1% w/v polyvinylpyrrolidone, 5 mM dithiothreitol, 1 mM alkaloid substrate, 1 mM SAM (S-adenosylmethionine) and 100 μg/mL purified NMT protein in a total of 100 μl reaction volume. Reactions were incubated for 4 h at 37° C., and stopped via 1) basification of the reaction mixture to pH 10-11, and 2) immediate addition of 1 mL ethyl acetate. Quenched reactions were vortexed and centrifuged (10,000 rpm) to separate organic and aqueous phases, and organic phase was carefully drawn off, placed in a new tube, reduced to dryness under vacuum, and resuspended in 500 μL of Solvent A (10 mM ammonium acetate pH 5.5, 5% v/v methanol). The resuspensions were centrifuged (10,000 rpm) prior to analysis by LC-MS to remove insoluble matter.
Ten μL sample was injected for LC-MS analysis using an Agilent 6410B triple quadrupole mass analyzer equipped with a 1200 Agilent HPCL system. Samples were fractionated using a previously described LC-ESI-MS/MS method [J. Chromatography B. 879:727, 2011] employing a Prodigy Phenyl-3 column (Phenomenex) which separated enantiomeric pairs (e.g. pseudoephedrine/ephedrine). Briefly, the HPLC gradient began as 95% Solvent A (Solvent B=100% methanol) for 1 minute at a flow rate of 0.2 ml/min, and decreased to 30% Solvent A/70% Solvent B over 19 minutes, then graded to 10% Solvent A/[…] over 0.5 minutes, then immediately returned to 100% Solvent A and equilibrated for 5 minutes. […] ESI and MS conditions were essentially the same as described [J. Chromatography B. 879:727, 2011].

SMILES | conversion by plant-derived extract [1] | acceptance as substrate for N-methylation by NMT (FIG. 3) [2] | effectiveness as NMT substrate, absolute product quantification (FIG. 4) ([2]; standard assay conditions, product quantified with standard curves as ng alkaloid per μg protein per hour)
CC(N)C(O)c1ccccc1 (stereo not shown) [norephedrine] | yielding ephedrine at comparable levels to E. coli-produced NMT |  | 
C[C@H](N)C(=O)c1ccccc1 [cathinone] |  | acting as substrate | 
CN[C@@H](C)[C@H](O)c1ccccc1 [ephedrine] |  | accepts | somewhat lower
NCC(O)c1ccc(O)cc1 (stereo not shown) [octopamine] |  | accepted as substrates | 
CN[C@@H](C)[C@@H](O)c1ccccc1 [pseudoephedrine] |  | accepts | 
CNCC(O)c1ccc(O)cc1 (stereo not shown) [Synephrine, synephrine] |  | accepted as substrates | 
